{"source": "patent US20230074252A1", "about": "“DOSAGES AND METHODS FOR TREATING PULMONARY ARTERIAL HYPERTENSION WITH RODATRISTAT” (Altavant Sciences GmbH, priority 2020, published 2023)", "key": {"CYP2C8": {"target": "T1, CYP2C8 (Homo sapiens, UniProt P10632)", "T1 sequence (P10632 1-490)": "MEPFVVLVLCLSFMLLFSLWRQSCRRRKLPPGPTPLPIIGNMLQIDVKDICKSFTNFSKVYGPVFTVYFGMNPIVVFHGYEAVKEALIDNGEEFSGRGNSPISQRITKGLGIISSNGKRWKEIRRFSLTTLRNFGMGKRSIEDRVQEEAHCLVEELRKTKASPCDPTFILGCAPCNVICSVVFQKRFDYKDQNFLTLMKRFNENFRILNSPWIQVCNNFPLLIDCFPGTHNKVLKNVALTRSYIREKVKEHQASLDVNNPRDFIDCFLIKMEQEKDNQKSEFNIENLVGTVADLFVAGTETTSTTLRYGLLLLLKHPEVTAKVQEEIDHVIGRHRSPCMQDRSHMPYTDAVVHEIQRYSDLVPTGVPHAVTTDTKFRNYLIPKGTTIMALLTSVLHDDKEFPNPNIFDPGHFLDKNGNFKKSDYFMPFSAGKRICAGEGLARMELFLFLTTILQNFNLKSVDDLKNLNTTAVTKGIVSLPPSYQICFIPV", "assay": "In vitro CYP substrate assessment (victim potential)", "format": "in vitro ADME"}, "OAT3": {"target": "T2, OAT3 (Homo sapiens, UniProt Q8TCC7)", "T2 sequence (Q8TCC7 1-542)": "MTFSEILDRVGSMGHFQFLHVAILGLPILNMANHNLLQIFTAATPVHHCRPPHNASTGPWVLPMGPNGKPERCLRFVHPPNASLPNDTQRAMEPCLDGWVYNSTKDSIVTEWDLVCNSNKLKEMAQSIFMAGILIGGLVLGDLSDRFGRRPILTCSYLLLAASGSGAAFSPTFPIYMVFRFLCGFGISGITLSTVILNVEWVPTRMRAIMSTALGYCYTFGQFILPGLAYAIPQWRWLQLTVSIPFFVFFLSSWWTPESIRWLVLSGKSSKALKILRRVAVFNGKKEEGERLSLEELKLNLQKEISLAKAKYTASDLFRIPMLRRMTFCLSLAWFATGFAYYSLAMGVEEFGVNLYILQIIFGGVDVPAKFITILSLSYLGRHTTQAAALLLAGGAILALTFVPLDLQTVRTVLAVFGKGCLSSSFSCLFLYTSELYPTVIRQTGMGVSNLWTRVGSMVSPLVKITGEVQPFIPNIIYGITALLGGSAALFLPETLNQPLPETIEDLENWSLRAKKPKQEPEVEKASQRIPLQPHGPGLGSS", "assay": "Transporter inhibition, transporter-expressing in vitro system", "format": "in vitro ADME", "settings": "for Potential for interaction? (transporter inhibitor), OAT3: predicted @ 600 mg BID", "description": "The competitive inhibition of specific transporters was investigated for RVT-1201 and KAR5417 in transporter-expressing in vitro systems (XT158039). Inhibition of P-gp was evaluated using a Caco-2 cell line with digoxin as probe substrate. Inhibition of OATP1B1 and OATP1B3 was evaluated using a HEK293 cell line expressing these transporters with estradiol-17β-glucuronide as probe substrate. In addition, inhibition of other transporters was also investigated (BCRP, OAT1, OAT3, OCT2, MATE1, MATE2-K). The IC50 estimates for P-gp (RVT-1201) and OATP1B1/3 (RVT-1201 and KAR5417) supported further evaluation of inhibition DDI potential using the PBPK model. For each IC50 estimate, substrate concentration and Km were used to estimate RVT-1201 and KAR5417 Ki with Equation 1 (Cheng and Prusoff, 1973)."}, "[1]": {"assay": "Predicted plasma Cmax for 600 mg rodatristat ethyl BID (ELEVATE1/ELEVATE2)", "design": "species or system human", "settings": "for Unbound Cmax: 600 mg BID, conservative 1% free fraction; for Predicted mean maximum plasma concentration (Cmax) / Cmax: 600 mg rodatristat ethyl BID, plasma; for Cmax: read-out: Predicted mean maximum plasma concentration (Cmax)", "description": "The potential for rodatristat ethyl or rodatristat to be perpetrators of drug-drug interactions was assessed across in vitro CYP and transporter studies (Tables 1-4). […] This analysis was performed to assess the potential for clinically meaningful DDIs as recommended in FDA Draft Guidance: “In Vitro Metabolism- and Transporter-Mediated Drug-Drug Interaction Studies Guidance for Industry”; October 2017 (FDA, 2017).\nR1 and R3 values using free (non-protein bound) drug levels were calculated based on plasma protein binding (fraction bound, fb) of rodatristat ethyl (0.995) and rodatristat (0.991). The FDA Guidance is set forth In Vitro Metabolism- and Transporter-Mediated Drug-Drug Interaction Studies Guidance for Industry (2017). […] Parameters for the prediction are set forth below in Tables 5 and 6."}, "[2]": {"assay": "Pro-drug to active ratio in portal versus peripheral blood", "format": "in vivo", "settings": "rat", "excerpt": "(§1) Calculation of Cmax, u, portal uses plasma Cmax, fraction of an oral dose absorbed (Fa) and measured unbound fraction in blood. For rodatristat, experimentally derived values were used for Fa determined in a rat 14C study (20%) and in vitro binding to human plasma (99.1%) and blood:plasma distribution (RB, 0.72). Walsky et al proposed a threshold where the ratio of Cmax, u, portal/Ki of <0.1 is associated with low risk. […] In the rat, the RE:R is ˜3-fold higher in portal blood compared to the periphery."}, "[3]": {"assay": "Blood:plasma distribution", "format": "in vitro ADME", "settings": "whole blood; read-out: Blood:plasma distribution (RB)", "excerpt": "as §1"}, "[4]": {"assay": "Rat 14C study, fraction of oral dose absorbed", "format": "in vivo", "excerpt": "as §1"}, "Elimination route in rat": {"assay": "Elimination route in rat", "format": "in vivo", "excerpt": "The metabolism of rodatristat ethyl is predominantly by esterase mediated hydrolysis of the ester pro-drug moiety to rodatristat in liver tissue preparations from human, rat, dog, and cynomolgus monkey, and intestinal and lung tissues from rat and human. Hydrolysis of rodatristat ethyl was also observed in rat blood, and to a much lesser extent in dog and human blood."}, "[5]": {"assay": "Passive permeability in Caco 2 and MDCK cell studies", "format": "in vitro ADME", "excerpt": "Consequently, the elimination of rodatristat into bile may be impacted by co-administration with agents that are BCRP inhibitors."}}}
{"smiles": "CCOC(=O)[C@@H]1CC2(CCN(c3cc(O[C@H](c4ccc(Cl)cc4-c4ccccc4)C(F)(F)F)nc(N)n3)CC2)CN1", "note": "[Rodatristat ethyl, (S)-ethyl 8-(2-amino-6-((R)-1-(5-chloro-[1,1′-biphenyl]-2-yl)-2,2,2-trifluoroethoxy)pyrimidin-4-yl)-2,8-diazaspiro[4.5]decane-3-carboxylate]", "values": [{"measurement": "In vitro substrate? CYP2C8", "setting": "CYP2C8", "value": "No"}, {"measurement": "Inhibition of OAT3 (in words)", "setting": "OAT3", "value": "Neither rodatristat ethyl nor rodatristat inhibited"}, {"measurement": "Potential for interaction? (transporter inhibitor), OAT3", "setting": "OAT3", "value": "No"}, {"measurement": "Unbound Cmax", "setting": "[1]", "value": 2.5, "unit": "nM"}, {"measurement": "Predicted mean maximum plasma concentration (Cmax)", "setting": "[1]", "value": 149, "unit": "ng/mL"}, {"measurement": "Cmax", "setting": "[1]", "value": 252, "unit": "nM"}, {"measurement": "RE:R ratio higher in portal blood compared to the periphery", "setting": "[2]", "value": "~3", "unit": "fold"}]}
{"smiles": "Nc1nc(O[C@H](c2ccc(Cl)cc2-c2ccccc2)C(F)(F)F)cc(N2CCC3(CC2)CN[C@H](C(=O)O)C3)n1", "note": "[Rodatristat, (S)-8-(2-amino-6-((R)-1-(5-chloro-[1,1′-biphenyl]-2-yl)-2,2,2-trifluoroeth-oxy)pyrimidin-4-yl)-2,8-diazaspiro[4.5]decane-3-carboxylic acid]", "values": [{"measurement": "In vitro substrate? CYP2C8", "setting": "CYP2C8", "value": "No"}, {"measurement": "Inhibition of OAT3 (in words)", "setting": "OAT3", "value": "Neither rodatristat ethyl nor rodatristat inhibited"}, {"measurement": "Potential for interaction? (transporter inhibitor), OAT3", "setting": "OAT3", "value": "No"}, {"measurement": "Unbound Cmax", "setting": "[1]", "value": 20, "unit": "nM"}, {"measurement": "Unbound Cmax", "setting": "[1]; listed as rodatristat", "value": 20.1, "unit": "nM"}, {"measurement": "Predicted mean maximum plasma concentration (Cmax)", "setting": "[1]", "value": 1130, "unit": "ng/mL"}, {"measurement": "Cmax", "setting": "[1]", "value": 2010, "unit": "nM"}, {"measurement": "blood plasma ratio", "setting": "[3]", "value": 0.72}, {"measurement": "Fraction of an oral dose absorbed (Fa)", "setting": "[4]", "value": 20, "unit": "%"}, {"measurement": "Elimination route", "setting": "Elimination route in rat", "value": "largely eliminated unchanged in bile"}, {"measurement": "Passive permeability", "setting": "[5]", "value": "very low passive permeability"}]}
